{"source": "patent US9402839B2", "about": "“Selective targeting agents for mitochondria” (University of Pittsburgh—Of the Commonwealth System of …, priority 2006, dated 2016)", "key": {"[1]": {"test_system": "rat ileal mucosal permeability", "test": "Intestinal mucosal permeability assay (FD4 clearance, everted gut sacs) after pressure-controlled hemorrhagic shock", "type": "in vivo", "conditions": "for protection against hemorrhagic shock-induced ileal mucosal hyperpermeability: intraluminal, 0.1-100 μM, 2 h shock", "procedure": "Intestinal mucosal permeability assay. Animals were allowed access to water but not food for 24 h prior to the experiment in order to decrease the volume of intestinal contents. The rats were instrumented as described above.\nA midline laparotomy was performed and the small intestine was exteriorized from the duodenojejunal junction to the ileocecal valve. A small incision was made on the antimesenteric aspect of the proximal small intestine and saline solution (1.5 ml) was injected. The bowel was ligated proximally and distally to the incision with 4-0 silk (LOOK, Reading, Pa.).\nThe small intestine was compressed gently in aboral direction along its length to displace intestinal contents into the colon. Starting 5 cm from the ileocecal valve, the ileum was partitioned into six contiguous water-tight segments. Each segment was 3 cm long and was bounded proximally and distally by constricting circumferential 4-0 silk sutures. Care was taken to ensure that the vascular supply to intestine was not compromised, and each segment was well-perfused.\nTwo randomly selected segments in each rat were injected with 0.3 ml of vehicle and served as “no treatment” controls. In order to fill the segments, a small incision was made and the solution was injected using a Teflon catheter (ABBOCATH 16Ga, ABBOTT LABORATORIES).\nThe remaining four other segments were injected with solutions containing either 4-hydroxy-2,2,6,6-tetramethylpiperidine-N-oxyl (TEMPOL) or one of the Gramicidin S-based compounds. Four different final concentrations of TEMPOL in normal saline were evaluated: 0.1, 1, 5 and 20 mM. The hemigramicidin-based compounds were dissolved in a mixture of dimethylsulfoxide (DMSO) and normal saline (1:99 v/v) and injected at final concentrations of 0.1, 1, 10 or 100 μM.\nAfter the segments were loaded with saline or the test compounds, the bowel was replaced inside the peritoneal cavity and the abdominal incision was temporarily closed using Backhaus forceps.\nAfter a 5 min stabilization period, hemorrhagic shock was induced by withdrawing blood via the jugular catheter. MAP was maintained at 30±3 mm Hg for 2 hours. The shed blood was re-infused as needed to maintain MAP within the desired range.\nAfter 2 h of shock, the animals were euthanized with an intracardiac KCl bolus injection. The ileum was rapidly excised from the ileocecal valve to the most proximal gut segment. The tips of each segment were discarded. In order to assay caspases 3 and 7 activity and phospholipids peroxidation, mucosa samples were collected from gut segments immediately after hemorrhage and stored at −80° C. For permeability measurements, each segment was converted into an everted gut sac, as previously described by Wattanasirichaigoon et al., see Wattanasirichaigoon, S. et al., Effect of mesenteric ischemia and reperfusion or hemorrhagic shock on intestinal mucosal permeability and ATP content in rats, SHOCK, 12:127-133 (1999).\nBriefly, as per the Wattanasirichaigoon protocol referenced above, the sacs were prepared in ice-cold modified Krebs-Henseleit bicarbonate buffer (“KHBB”), pH 7.4. One end of the gut segment was ligated with a 4-0 silk suture; the segment was then everted onto a thin plastic rod. The resulting gut sac was mounted on a Teflon catheter (Abbocath 16GA, Abbot Laboratories) connected to a 3 ml plastic syringe containing 1.5 ml of KHBB. The sac was suspended in a beaker containing KHBB plus fluorescein-isothiocyanate labeled dextran (average molecular mass 4 kDa; FD4; 0.1 mg/ml). This solution was maintained at 37° C., and oxygenated by bubbling with a gas mixture (O2 95%/CO2 5%). After 30 min, the fluid within the gut sac was collected. The samples were cleared by centrifugation at 2000 g for 5 min.\nFluorescence of FD4 in the solution inside the beaker and within each gut sac was measured using a fluorescence spectrophotometer (LS-50, PERKIN-ELMER, Palo Alto, Calif.) at an excitation wavelength of 492 nm and an emission wavelength of 515 nm. […]"}, "[2]": {"test_system": "mitochondrial membrane", "test": "Quantitative mass spectrometry of AMT peptide conjugates permeating the mitochondrial membrane", "type": "cell-based", "conditions": "for Fmole/l0M mitochondrial protein: relative quantification of conjugate concentration at the target site", "procedure": "Quantitative mass spectrometry studies were used to compare the effectiveness of several AMT peptide conjugates in permeating the mitochondrial membrane, specifically XJB-5-234, XJB-5-133, XJB-5-241, and XJB-5-127. The Fmole/10 μM mitochondrial protein ratio provides a relative quantification of conjugate concentration at the target site."}, "[3]": {"test_system": "MECs", "test": "Determination of intracellular superoxide radicals (DHE oxidation, flow cytometry) in ActD-treated MECs", "type": "cell-based, mouse", "conditions": "10 μM pretreatment, ActD 100 ng/mL; nearly two-fold ActD-induced increase", "procedure": "Determination of intracellular superoxide radicals Oxidation-dependent fluorogenic dye, dihydroethidium (“DHE”, Molecular Probes) was used to evaluate intracellular production of superoxide radicals. DHE is cell permeable and, in the presence of superoxide, is oxidized to fluorescent ethidium which intercalates into DNA. The fluorescence of ethidium was measured using a FACscan (BECTON-DICKINSON, Rutherford, N.J.) flow cytometer, equipped with a 488-nm argon ion laser and supplied with the Cell Quest software. Mean fluorescence intensity from 10,000 cells were acquired using a 585-nm bandpass filter (FL-2 channel)."}, "[4]": {"test_system": "irradiated uroepithelial cells", "test": "NO and peroxynitrite production in irradiated uroepithelial cells (microsensor measurements)", "type": "cell-based", "procedure": "Further physiological studies were conducted to determine the effects of peptide-targeted AMT and 4-amino-TEMPO on NO and peroxynitrite production in irradiated uroepithelial cells. The cells were cultured in an 8-well slide chamber for 3 days and then microsensor measurements were taken 24 hours after irradiation.\nIn cells treated with high-dose conjugated 4-amin-TEMPO (100 μM), peroxynitrite production was decreased by approximately 4-fold."}, "[5]": {"test_system": "MECs", "test": "ActD-induced apoptosis in MECs (PS externalization, caspase-3 activation, DNA fragmentation)", "type": "cell-based, mouse", "conditions": "10 μM / low concentrations, ActD 100 ng/mL", "from_the_text": "Cells that annexin V-positive and PI-negative were considered apoptotic."}, "[6]": {"test_system": "32D c13 hemopoietic cells", "test": "Mass spectrometry analysis of mitochondria isolated from incubated 32D c13 cells", "type": "cell-based", "conditions": "100 μM, two hours at 37° C.", "procedure": "An unconjugated and conjugated NOS antagonist, (AMT, 100 μM) and an unconjugated and conjugated nitroxide derivative (4-amino-TEMPO, 100 μM) were incubated for two hours at 37° C. with 32D c13 hemopoietic cells.\nFollowing incubation, the cells were lysed and the mitochondria isolated for a mass spectrometry analysis where compounds isolated from mitochondria were identified as Na+ adducts. […] Thus, the targeting peptides successfully direct a NOS antagonist and a nitroxide to the mitochondria."}, "[7]": {"test_system": "mouse embryonic cells (MEC)", "type": "cell-based", "conditions": "10 μM; with and without K3Fe(CN)6", "procedure": "Electron paramagnetic resonance (“EPR”) spectroscopy was used to monitor the cellular delivery of compounds 5a and 5b shown in FIG. 2 in mouse embryonic cells (“MEC”).\nThe following conditions were used during the EPR-based analysis of the integration and reduction of nitroxide Gramicidin S-peptidyl conjugates in MECs. The MECs at a concentration of 10 million MECs per mL were incubated with 10 μM of 4-AT and compound 5a, respectively. Recovered nitroxide radicals in whole cells, mitochondria, and cytosol fractions were resuspended in phosphate buffer saline (“PBS”) in the presence and absence, respectively, of 2 μM K3Fe(CN)6."}}, "note": "Non-standard residues stand in square brackets, D forms with d. Residues, ends and D or L forms follow the SMILES beside them. *: point of attachment. Orn = NCCC[C@H](N)C(=O)O; Cbz = O=C(OCc1ccccc1)*; Boc = CC(C)(C)OC(=O)*; X1 = CC1CCN=C(N*)S1", "data": [{"compound": "CC(C)C[C@@H](/C=C/[C@H](Cc1ccccc1)C(=O)N1CCC[C@H]1C(=O)N[C@H](C(=O)N[C@@H](CCCNC(=O)OCc1ccccc1)C(=O)NC1=NCCC(C)S1)C(C)C)NC(=O)OC(C)(C)C", "note": "(stereo partly drawn) [XJB-5-133, Boc-Leu-ψ[(E)-CH═CH]-^DPhe-Pro-Val-Orn(Cbz)-AMT]", "values": [{"measurement": "protection against hemorrhagic shock-induced ileal mucosal hyperpermeability", "setting": "[1]", "result": "did not afford protection"}, {"measurement": "biological activity compared with XJB-5-241", "setting": "[2]", "result": "less biologically active"}, {"measurement": "Fmole/l0M mitochondrial protein", "setting": "[2]", "result": "89.8 Fmole/l0M mitochondrial protein"}]}, {"compound": "CC(C)C[C@@H](/C=C/[C@H](Cc1ccccc1)C(=O)NC1=NCCC(C)S1)NC(=O)OC(C)(C)C", "note": "(stereo partly drawn) [XJB-5-234, Boc-Leu-ψ[(E)-CH═CH]-^DPhe-AMT]", "values": [{"measurement": "Fmole/l0M mitochondrial protein", "setting": "[2]", "result": "1.45 Fmole/l0M mitochondrial protein"}]}, {"compound": "CC1(C)CC(N)CC(C)(C)N1[O]", "note": "[4-AT, 4-amino-TEMPO, reference compound]", "values": [{"measurement": "intracellular superoxide generation in MECs", "setting": "[3]", "result": "no effect"}, {"measurement": "capsaicin-evoked peroxynitrite formation compared with untreated irradiated cells", "setting": "[4]; 100 μM, 24 hours after irradiation", "result": "comparable amount of peroxynitrite"}, {"measurement": "protection of MECs against ActD-induced apoptosis", "setting": "[5]", "result": "afforded no protection"}, {"measurement": "permeation of the mitochondrial membrane (mass spectrometry of isolated mitochondria)", "setting": "[6]", "result": "only permeate the mitochondrial membrane with the assistance of the attached GS-derived targeting sequence"}, {"measurement": "integration and one-electron reduction in MECs (EPR signal increase upon ferricyanide)", "setting": "[7]", "result": "did not effectively permeate cells or the mitochondria"}]}, {"compound": "CC1CCN=C(N)S1", "note": "(centres unmarked) [AMT, 2-amino-6-methyl-thiazine]", "values": [{"measurement": "radioprotectant effectiveness compared with 4-amino-TEMPO", "setting": "[4]", "result": "more effective radioprotectant"}, {"measurement": "NO induced peroxynitrite formation", "setting": "[4]; 10 μM, 24 hours after irradiation", "result": "comparable amount of peroxynitrite"}, {"measurement": "permeation of the mitochondrial membrane (mass spectrometry of isolated mitochondria)", "setting": "[6]", "result": "do not enter the mitochondria membrane in substantial quantities"}]}, {"compound": "CC1(C)CC(O)CC(C)(C)N1[O]", "note": "[TEMPOL, 4-hydroxy-2,2,6,6-tetramethylpiperidine-N-oxyl, reference compound]", "values": [{"measurement": "concentrations in the gut lumen that ameliorated hemorrhagic shock-induced ileal mucosal hyperpermeability", "setting": "[1]; intraluminal, 0.1, 1, 5 and 20 mM tested", "result": "> 1", "unit": "mM"}]}, {"compound": "C/C(=C\\[C@H](Cc1ccccc1)C(=O)N1CCC[C@H]1C(=O)N[C@H](C(=O)N[C@@H](CCCNC(=O)OCc1ccccc1)C(=O)NC1=NCCC(C)S1)C(C)C)[C@H](CC(C)C)NC(=O)OC(C)(C)C", "note": "(stereo partly drawn) [XJB-5-241, Boc-Leu-ψ[(E)-C(CH3)═CH]-^DPhe-Pro-Val-Orn(Cbz)-AMT]", "values": [{"measurement": "ranking of conjugates in permeating the mitochondrial membrane", "setting": "[2]; among XJB-5-234, XJB-5-133, XJB-5-241 and XJB-5-127", "result": "most efficacious conjugate"}, {"measurement": "Fmole/l0M mitochondrial protein", "setting": "[2]", "result": "103.3 Fmole/l0M mitochondrial protein"}]}, {"compound": "CC(C)C[C@H](NC(=O)OC(C)(C)C)C(=O)N[C@H](Cc1ccccc1)C(=O)N1CCC[C@H]1C(=O)N[C@H](C(=O)N[C@@H](CCCNC(=O)OCc1ccccc1)C(=O)NC1=NCCC(C)S1)C(C)C", "note": "(stereo partly drawn) [XJB-5-127, Boc-Leu-^DPhe-Pro-Val-Orn(Cbz)-AMT] (Boc-L[dF]PV[Orn](Cbz)-X1)", "values": [{"measurement": "protection against hemorrhagic shock-induced ileal mucosal hyperpermeability", "setting": "[1]", "result": "Ineffective"}, {"measurement": "biological activity compared with XJB-5-241", "setting": "[2]", "result": "less biologically active"}]}]}
